What follows are compounds tested on A673 NR0B1-luciferase reporter, viability-normalised luminescence (assay: suppressors of NR0B1-promoter luciferase reporter, dose response, EWS/Fli inhibitor project, luciferase luminescence, A673 cells, cherry-pick (AID 686920)).
In the case of `Nc1cc2c(cc1Br)[nH]c(=O)c1ccccc12`, the AC35 was 43.3 µM. For `O=C1C(=O)N(CCS(=O)(=O)c2ccccc2)c2ccc(Cl)cc21`, the AC35 was 12.2 µM. `CCc1ccc(/C=C2\SC(=S)N(CCC(=O)Nc3cc(C)on3)C2=O)cc1` gave an AC35 of 6.38 µM. In the case of `C[C@@H]1CCCCO[C@H](CN(C)Cc2ccc(C(=O)Nc3ccccc3N)cc2)[C@@H](C)CN([C@@H](C)CO)C(=O)c2cc(NS(=O)(=O)c3ccc(Cl)cc3)ccc2O1`, the AC35 was 6.13 µM. For `CC1OC(OC2CC(O)C3(CO)C4C(O)CC5(C)C(C6=CC(=O)OC6)CCC5(O)C4CCC3(O)C2)C(O)C(O)C1O` (stereo not given), the AC35 was 0.0738 µM. For `COc1ccc(C(=O)Nc2cccc(C(=O)N/N=C/c3ccc(OC)cc3OC)c2)cc1`, the AC35 was 31.2 µM. Compound `C[C@]12CC[C@H](O)C[C@H]1CC[C@@H]1[C@@H]2CC[C@]2(C)[C@@H](C3=CC(=O)OC3)CC[C@]12O` has an AC35 of 0.395 µM. `C[C@@H]1CN([C@H](C)CO)C(=O)c2cc(NC(=O)CCCCCC(=O)Nc3ccccc3N)ccc2O[C@H]1CN(C)S(=O)(=O)c1ccc(Cl)cc1` gave an AC35 of 35.2 µM. `C[C@@H]1CN([C@H](C)CO)C(=O)c2cc(NC(=O)CCCCCC(=O)Nc3ccccc3N)ccc2O[C@@H]1CN(C)Cc1ccc(Cl)c(Cl)c1` was tested, and the AC35 was 5.24 µM. `CCCNC(=O)N1[C@H](C#N)[C@H](c2ccc(C#Cc3cccc(F)c3)cc2)[C@H]1CO` was tested, and the AC35 was 8.47 µM. With `C[C@H]1CN([C@@H](C)CO)C(=O)c2cc(NS(=O)(=O)c3ccc(Cl)cc3)ccc2O[C@H]1CN(C)Cc1ccc(Cl)c(Cl)c1` the AC35 was 40.5 µM. Work on `Cc1ccc(NC(=O)CCN2CCCCC2)cc1` yielded an AC35 of 26.1 µM. `Cc1nc2cc(-c3ccc(Cl)cc3)nn2c(C)c1CCC(=O)NC(C)c1ccc2c(c1)OCCO2` (stereo not given) gave an AC35 of 0.847 µM. Compound `C[C@@H]1CN([C@H](C)CO)C(=O)c2cc(NC(=O)c3ccccc3)ccc2O[C@@H](C)CCCCO[C@H]1CN(C)C(=O)Nc1cccc2ccccc12` has an AC35 of 2.07 µM. `CCN1/C(=C/C(C)=C/c2sc3ccccc3[n+]2CC)Sc2ccccc21` showed an AC35 of 1.56 µM. Compound `C(=N\Nc1ccc2ccccc2n1)/c1ccc2c(c1)OCO2` has an AC35 of 5.76 µM. In the case of `O=C1NC(=O)N(Cc2ccccc2)C(=O)/C1=C\C=C\c1ccco1`, the AC35 was 10.4 µM. Work on `C[C@@H]1CN([C@@H](C)CO)C(=O)Cc2cc(NS(=O)(=O)c3cccs3)ccc2O[C@H]1CN(C)Cc1ccc(Cl)c(Cl)c1` yielded an AC35 of 3.76 µM. `COC(=O)c1cccc(NC(=O)NC(=O)c2ccccc2Cl)c1` showed an AC35 of 0.215 µM. With `N#C[C@H]1[C@H](c2ccc(C#Cc3ccccc3F)cc2)[C@@H](CO)N1C(=O)C1CCOCC1` the AC35 was 34 µM. `Cc1cc(C(=O)Nc2ccc3c(c2)C(=O)N(C)[C@@H]2CC[C@H](CC(=O)N[C@H](C)c4ccccc4)O[C@H]2CO3)no1` gave an AC35 of 10.2 µM. With `O=C(O)c1ccc(N/N=C/c2c[nH]c3ccccc23)cc1` the AC35 was 8.82 µM. `CN(C)c1ccc(N=Nc2nc3ccccc3n2C)cc1` showed an AC35 of 12.5 µM. `COc1ccccc1/C=C1\SC(=S)N(CCC(=O)Nc2cc(C)on2)C1=O` showed an AC35 of 16.8 µM. With `O=C(c1cccc(S(=O)(=O)NCc2ccccc2)c1)N1CCN(c2ccccc2)CC1` the AC35 was 11.6 µM. `Cc1ccc(C(=O)CN2C(=O)c3ccccc3S2(=O)=O)cc1` showed an AC35 of 1.97 µM. `O=C1/C(=C\c2ccccc2)CN(C(=O)CCN2CCCCC2)C/C1=C/c1ccccc1` was tested, and the AC35 was 2.54 µM. With `CN=c1scc(-c2ccccc2F)n1/N=C/c1ccc(O)c(O)c1O` the AC35 was 15.7 µM. In the case of `CCCCCCCN(c1ccccc1)[C@@H]1C[C@H]2CCCC(=O)N3CC[C@@H](C1)[C@@H]23`, the AC35 was 11.8 µM. Compound `CC12CCC3C(CCC4(O)CC(O)CCC34C=NO)C1(O)CCC2C1=COC(=O)C1` (stereo not given) has an AC35 of 0.293 µM. `COc1ccc(CC(N)c2csc(NC(=O)Nc3cccc(C(F)(F)F)c3)n2)cc1` (stereo not given) showed an AC35 of 9.72 µM. `COc1cc2c(cc1NC(=O)CN(C)Cc1ccc(OC)c(OC)c1)oc1ccccc12` was tested, and the AC35 was 8.33 µM. For `O=C(O)c1cccc(N/N=C/c2ccc(OC(F)(F)F)cc2)c1`, the AC35 was 2.26 µM. Compound `COc1ccc(S(=O)(=O)N2CC[C@@H]3[C@@H](CO)Nc4ccc(-c5ccc(C#N)cc5)cc4[C@@H]32)cc1` has an AC35 of 0.625 µM. Compound `Cc1cc(C)cc(N2C(=O)NC(=O)/C(=C\C=C\c3ccco3)C2=O)c1` has an AC35 of 4.31 µM. `CC(C)c1ccccc1NC(=O)COC(=O)CCN1C(=O)/C(=C\C=C\c2ccccc2)SC1=S` was tested, and the AC35 was 1.9 µM. Compound `COc1cccc(-c2cc(NC=O)c3ncc(-c4ccc(C(C)=O)cc4)n3c2)c1` has an AC35 of 6.25 µM. For `O=C(CCCN1C(=O)S/C(=C\c2ccccc2)C1=O)NNC(=O)c1ccccc1O`, the AC35 was 4.38 µM. `C[C@H]1CN([C@@H](C)CO)S(=O)(=O)c2ccc(C#Cc3ccncc3)cc2O[C@@H]1CN(C)C(=O)Nc1ccc2c(c1)OCO2` was tested, and the AC35 was 10.1 µM. `CC(C)c1oc(=O)cc2c1[C@@H](O)[C@H]1OC(=O)[C@@]3(C)CC[C@@H](O)[C@@]2(C)C13` (stereo not given in full) showed an AC35 of 4.21 µM. `COc1ccc(OC)c(-c2nnc3n2N=C(c2ccc(OC)c(OC4CCCC4)c2)CS3)c1` showed an AC35 of 12.6 µM. Work on `C[C@H](CO)N1C[C@H](C)[C@H](CN(C)Cc2ccc(C(F)(F)F)cc2)Oc2ccc(NC(=O)CCCCCC(=O)Nc3ccccc3N)cc2CC1=O` yielded an AC35 of 6.04 µM. With `NC(Cc1ccc(C(F)(F)F)cc1)c1csc(NC(=O)Nc2ccccc2Cc2ccccc2)n1` (stereo not given) the AC35 was 17.6 µM. `Cc1ccccc1N=CC1=C(O)c2ccccc2C1=O` showed an AC35 of 2.72 µM. `Cc1ccc(S(=O)(=O)N(C)C[C@@H]2Oc3ccc(NC(=O)CCCCCC(=O)Nc4ccccc4N)cc3CC(=O)N([C@@H](C)CO)C[C@@H]2C)cc1` showed an AC35 of 11 µM.
